Assay type in all cases: biochemical
For assay [1], the target named is T1, SERT (Rattus norvegicus, UniProt P31652). The experiment in a line: [3H]5-HT release at SERT in rat brain synaptosomes. The note with it: for Emax: read-out: Release at SERT % Emax.
Assay [2] concerns the target T2, NET (Rattus norvegicus, UniProt Q63380). The experiment in a line: [3H]MPP+ release at NET in rat brain synaptosomes. The following applies: for Emax: read-out: Release at NET % Emax.
Assay [3] addresses T1, SERT. The experiment in a line: [3H]5-HT uptake inhibition at SERT in rat brain synaptosomes.
Assay [4] deals with T3, DAT (Rattus norvegicus, UniProt P23977). The experiment in a line: [3H]MPP+ release at DAT in rat brain synaptosomes. The note with it: for DAT/SERT ratio (release): (DAT EC50^-1)/(SERT EC50^-1), higher value indicates greater DAT selectivity; for Emax: read-out: Release at DAT % Emax.
The target in assay [5] is T3, DAT. The experiment in a line: [3H]dopamine uptake inhibition at DAT in rat brain synaptosomes. The note with it: for DAT/SERT ratio (uptake inhibition): (DAT IC50^-1)/(SERT IC50^-1), higher value indicates greater DAT selectivity; for IC50: [3H]Dopamine uptake at DAT IC50, rat caudate synaptosomes, 5 nM [3H]dopamine, mean ± SD, N=3.
Assay [6] deals with T2, NET. The experiment in a line: [3H]norepinephrine uptake inhibition at NET in rat brain synaptosomes. The following applies: [3H]Norepinephrine uptake at NET IC50, rat brain synaptosomes, 10 nM [3H]norepinephrine; mean ± SD, N=3.

T3 sequence (P23977 whole entry): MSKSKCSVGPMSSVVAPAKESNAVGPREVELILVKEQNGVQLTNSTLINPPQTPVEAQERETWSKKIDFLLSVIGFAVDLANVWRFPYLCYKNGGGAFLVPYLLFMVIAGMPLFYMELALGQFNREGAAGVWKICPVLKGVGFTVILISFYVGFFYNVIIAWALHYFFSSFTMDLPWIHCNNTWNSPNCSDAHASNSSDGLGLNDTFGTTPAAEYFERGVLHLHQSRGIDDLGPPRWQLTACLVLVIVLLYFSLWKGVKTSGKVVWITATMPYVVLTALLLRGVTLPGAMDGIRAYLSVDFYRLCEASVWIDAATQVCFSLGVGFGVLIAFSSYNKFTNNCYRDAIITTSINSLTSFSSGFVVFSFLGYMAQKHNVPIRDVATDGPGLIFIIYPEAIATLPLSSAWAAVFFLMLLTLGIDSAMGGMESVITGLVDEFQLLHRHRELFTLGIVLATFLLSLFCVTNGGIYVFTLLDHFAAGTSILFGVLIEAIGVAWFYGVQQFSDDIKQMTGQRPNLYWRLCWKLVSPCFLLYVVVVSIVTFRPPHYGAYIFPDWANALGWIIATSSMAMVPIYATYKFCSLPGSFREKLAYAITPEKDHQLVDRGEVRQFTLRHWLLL
T2 sequence (Q63380 1-617): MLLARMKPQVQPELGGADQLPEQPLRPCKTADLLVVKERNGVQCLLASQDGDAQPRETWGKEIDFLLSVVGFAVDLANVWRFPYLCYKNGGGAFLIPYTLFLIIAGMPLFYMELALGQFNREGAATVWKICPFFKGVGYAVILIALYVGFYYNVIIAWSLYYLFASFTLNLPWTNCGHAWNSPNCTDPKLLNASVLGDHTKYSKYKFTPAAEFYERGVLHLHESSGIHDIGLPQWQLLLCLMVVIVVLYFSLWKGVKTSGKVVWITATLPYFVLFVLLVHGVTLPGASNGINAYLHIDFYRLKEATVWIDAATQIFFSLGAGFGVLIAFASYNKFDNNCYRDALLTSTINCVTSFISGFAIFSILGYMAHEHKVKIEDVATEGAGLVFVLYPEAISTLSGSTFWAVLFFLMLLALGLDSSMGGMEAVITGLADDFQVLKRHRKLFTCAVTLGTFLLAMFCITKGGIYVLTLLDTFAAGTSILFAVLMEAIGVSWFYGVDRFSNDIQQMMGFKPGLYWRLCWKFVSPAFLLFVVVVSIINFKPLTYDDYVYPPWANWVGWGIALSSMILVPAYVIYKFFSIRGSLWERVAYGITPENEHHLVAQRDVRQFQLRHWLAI
T1 sequence (P31652 whole entry): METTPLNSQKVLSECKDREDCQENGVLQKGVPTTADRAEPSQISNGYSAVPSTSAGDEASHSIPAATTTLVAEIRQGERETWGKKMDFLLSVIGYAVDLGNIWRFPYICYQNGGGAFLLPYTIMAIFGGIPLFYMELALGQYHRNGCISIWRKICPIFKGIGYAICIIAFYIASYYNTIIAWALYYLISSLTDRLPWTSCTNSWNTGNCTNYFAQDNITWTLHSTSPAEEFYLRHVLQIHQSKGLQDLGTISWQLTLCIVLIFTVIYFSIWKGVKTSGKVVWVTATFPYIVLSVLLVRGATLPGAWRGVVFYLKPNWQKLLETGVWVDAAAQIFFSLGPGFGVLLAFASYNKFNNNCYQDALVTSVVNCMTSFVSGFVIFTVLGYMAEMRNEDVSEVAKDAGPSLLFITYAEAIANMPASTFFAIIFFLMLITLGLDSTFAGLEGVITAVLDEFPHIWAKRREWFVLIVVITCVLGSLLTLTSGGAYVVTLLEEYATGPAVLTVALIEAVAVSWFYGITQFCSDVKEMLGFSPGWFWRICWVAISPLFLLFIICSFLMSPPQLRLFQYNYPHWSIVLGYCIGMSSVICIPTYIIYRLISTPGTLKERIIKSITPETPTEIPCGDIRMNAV

In general, EC50 refers to the midpoint of the concentration-response curve. Low readings indicate a more potent agent, high ones a less potent agent. Usually Emax stands for the size of the effect at its maximum, as opposed to the concentration needed. One may read the IC50 as the concentration that gives 50% inhibition. A low value points to greater potency in that assay. `Cc1ccccc1C1OCCNC1C` (stereo not shown) [2-MPM, 3-Methyl-2-(2-methylphenyl)morpholine]: the EC50 on SERT [1] was determined as 1760 ± 336 nM; at NET [2], 102 ± 12 nM; at DAT [4], 374 ± 38 nM. The results for the Emax at SERT [1], on NET [2] and on DAT [4] were 101%, 91% and 104%, respectively. Further, the IC50 against SERT [3] is 4010 ± 317 nM; at DAT [5] it was 6590 ± 1310 nM; on NET [6], 2600 ± 633 nM. Also, the “DAT/SERT ratio (release)” value at DAT [4] was found to be 4.7. Besides, the “DAT/SERT ratio (uptake inhibition)” value on DAT [5] is 0.6.

Regarding `Cc1cccc(C2OCCNC2C)c1` (stereo not shown) [3-MPM, 3-Methyl-2-(3-methylphenyl)morpholine], the half-maximal effective concentration (EC50) at SERT [1] is 5380 ± 947 nM; at NET [2] it was 509 ± 73 nM; at DAT [4], 1320 ± 218 nM. In addition, the Emax at SERT [1] was 111%; at NET [2], 90%; at DAT [4], 110%. In addition, the IC50 against SERT [3] was > 10000 nM; against DAT [5], > 10000 nM; against NET [6] it was 5210 ± 1650 nM. Also, at DAT [4], the “DAT/SERT ratio (release)” value is listed as 4.1.

Consider `Cc1ccc(C2OCCNC2C)cc1` (stereo not shown) [4-MPM, 3-Methyl-2-(4-methylphenyl)morpholine], for which the concentration giving a half-maximal response (EC50) at SERT [1] came to 86 ± 12 nM; on NET [2], 62 ± 9 nM; at DAT [4], 227 ± 30 nM. In addition, the results for the maximal response (Emax) on SERT [1], at NET [2] and at DAT [4] were 88%, 90% and 99%, respectively. For the same compound, the IC50 against SERT [3] was 408 ± 17 nM; against DAT [5], 1930 ± 207 nM; against NET [6] it was 1930 ± 392 nM. On SERT [3] (relative to 2-MPM and phenmetrazine), the “fold more potent than 2-MPM and phenmetrazine at SERT (uptake inhibition)” value is ~10 fold. Moreover, the “DAT/SERT ratio (release)” value at DAT [4] came out at 0.4. The “DAT/SERT ratio (uptake inhibition)” value on DAT [5] came out at 0.2. In addition, the “fold more potent than 2-MPM at DAT (uptake inhibition)” value on DAT [5] (relative to 2-MPM) is given as “about 3.5 fold”.

As for `CC1NCCOC1c1ccccc1` (stereo not shown) [Phenmetrazine, 3-methyl-2-phenylmorpholine, reference compound], the values for the EC50 on SERT [1], at NET [2] and at DAT [4] were > 10000 nM, 29 ± 4 nM and 70 ± 9 nM, respectively. On SERT [1] (rat brain synaptosomes), the “releaser activity at SERT (in words)” value is given as “negligible activity”. Besides, the Emax is 95% at NET [2] and 101% at DAT [4]. Moreover, the IC50 against SERT [3] worked out at 3570 ± 836 nM; against DAT [5], 933 ± 57 nM; against NET [6] it was 1160 ± 197 nM.

For the origin of these results see article PMC7316143 (Drug testing and analysis, 2018).
